“Also recorded” adds a separate entry of the source. Where two headings read alike, the source gives them in different places.
Experiments:
[1] = tested on: HLA-A2+ EBV transformed B-cell line (KIG-BCL); assay type: cell-based; details: 51Cr-release
Method: (§1) Conventional ^51Cr-release assays for CTL-mediated cytotoxicity were carried out as described in Andersen et al., J Immunol 1999. Target cells were T2-cells, HLA-A2^+ EBV transformed B-cell line (KIG-BCL), autologous matured DC (mDC), HLA-A2^+ melanoma cell lines (MM1312.07 and MM.909.06) with or without IFN-γ (100 U/ml) addition for 2 days. T2-cells and KIG-BCL were pulsed with PD-L1 recombinant protein (Sin θ Biological Inc.) for 3 hr. at 37° C. prior addition of chromium. Lysis of T2-cells was blocked using anti HLA-A2 FITC conjugated antibody (2 ug/100 ul, BD Biosciences).

T2-cells = assay: 51Cr-release cytotoxicity assay, T2-cells; assay type: cell-based
Method: Conventional ^51Cr-release assays for CTL-mediated cytotoxicity were carried out as described elsewhere (Andersen et al., 1999). Target cells were T2 with and without PDL101 (FIG. 3a) and the HLA-A2+ breast cancer cell line the breast cancer cell line MDA-MB-231 (FIG. 3b) (available at the American Type Culture Collection (ATCC)).
as §1

PBMC [2] = assay: IFN-γ ELISPOT assay; assay type: cell-based, human; details: for specific T-cell responses, IFN-γ ELISPOT: PBMC from HLA-A2+ cancer patients (breast cancer, melanoma, renal cell carcinoma) stimulated once with peptide in vitro
From the text: The ELISPOT assay was used to quantify peptide specific IFN-γ releasing effector cells as described previously (Andersen et al., 2001, Cancer Res. 61:869-872). In some experiments PBMC were stimulated once in vitro with peptide prior to analysis as described (McCutcheon et al., 1997, J Immunol Methods 210:149-166) to extend the sensitivity of the assay. Briefly, nitrocellulose bottomed 96-well plates (MultiScreen MAIP N45; Millipore) were coated overnight with IFN-γ capture mAb (Mabtech). The wells were washed, blocked by X-vivo medium and the effector cells (PBMC collected and when indicated stimulated as described above) were added in duplicates at different cell concentrations, with or without 10 μM peptide. The plates were incubated overnight. The following day, medium was discarded and the wells were washed prior to addition of the relevant biotinylated secondary Ab (Mabtech). The plates were incubated at room temperature (RT) for 2 hours, washed, and Avidin-enzyme conjugate (AP-Avidin; Calbiochem/Invitrogen Life Technologies) was added to each well. Plates were incubated at RT for 1 hour and the enzyme substrate NBT/BCIP (Invitrogen Life Technologies) was added to each well and incubated at RT for 5-10 min. Upon the emergence of dark purple spots, the reaction was terminated by washing with tap water. The spots were counted using the ImmunoSpot Series 2.0 Analyzer (CTL Analyzers).
(§2) In the present study the ELISPOT was performed according to the guidelines provided by CIP (http://cimt.eu/cimt/files/dl/cip_guidelines.pdf). In some experiments PBMC were stimulated once in vitro with peptide prior to analysis as described to extend the sensitivity of the assay. Briefly, nitrocellulose bottomed 96-well plates (MultiScreen MAIP N45; Millipore) were coated overnight with the relevant antibodies. The wells were washed, blocked by X-vivo medium and the effector cells were added if possible in triplicates otherwise in duplicates at different cell concentrations, with or without peptide. The plates were incubated overnight. The following day, medium was discarded and the wells were washed prior to addition of the relevant biotinylated secondary Ab (Mabtech), followed by the Avidin-enzyme conjugate (AP-Avidin; Calbiochem/Invitrogen Life Technologies) and finally the enzyme substrate NBT/BCIP (Invitrogen Life Technologies). The spots were counted using the ImmunoSpot Series 2.0 Analyzer (CTL Analyzers). Definition of an ELISPOT response was based on the guidelines and recommendations provided by CIP by an empirical or a statistical approach; the former implies setting a threshold to represent a biological response. […] The non-parametric Distribution free resampling (DFR) test gives a way of formally comparing antigen stimulated wells with negative control wells. As a minimum the ELISPOT assay must be performed at least in triplets. Furthermore, the non-parametric unpaired Mann-Whitney test was used to compare PD-L101-specific responders between cancer patients and healthy donors.

HLA-A2 = assay: HLA peptide exchange technology and ELISA; assay type: binding, human; details: compared with high affinity epitopes HIV-1 pol476-484 and CMV pp65 pos495-503
From the text: To evaluate the affinity of the HLA-peptide complex a UV exchange method was used in combination with a sandwich ELISA as previously described (19).

PBMC [3] = assay: Granzyme B (GrB) ELISPOT; assay type: cell-based, human; details: PBMC from three melanoma patients (MM.03, MM.53, MM.135)
Method: as §2, with “As a minimum the ELISPOT assay must be performed at least in triplets. Furthermore, the non-parametric unpaired Mann-Whitney test was used to compare PD-L101-specific responders between cancer patients and healthy donors.” left out

[4] = tested on: PD-L101-specific, CD8 T-cells among PBMC; assay: HLA-A2/PD-L101 tetramer staining by flow cytometry; assay type: cell-based, human; details: for PD-L1-tetramer positive cells: after three in vitro re-stimulations
Method: Two PD-L101-specific T cell culture were established. PBMC from a breast cancer patient (CM.21) and from a melanoma (MM.05) patient were stimulated with irradiated PD-L101-loaded autologous DC. The following day IL-7 and IL-12 (PeproTech, London, UK) were added. […] The day after peptide stimulation IL-2 (PeproTech, London, UK) was added.
For multimer/tetramer staining, tetramers coupled with PE and APC were prepared using MHC-peptide exchange technology. […] Dead cell marker 7-AAD-PerCP (BD Bioscience) added prior to FACS analysis.

PBMC [5] = assay: TNF-α ELISPOT; assay type: cell-based, human; details: PBMC from IFN-γ-responding patients, triplicates
Method: In addition to determining the presence of specific T-cells using IFNγ as a marker, TNFα was also used as a marker. Thus, an ELISPOT assay was performed essentially as described above with the PDL101 peptide including a stimulation once in vitro with said peptide, except that TNFα antibodies were used in place of IFNγ antibodies. FIG. 2B show the results.
In the present study the ELISPOT was performed according to the guidelines provided by CIP (http://cimt.eu/cimt/files/dl/cip_guidelines.pdf). In some experiments PBMC were stimulated once in vitro with peptide prior to analysis as described to extend the sensitivity of the assay. Briefly, nitrocellulose bottomed 96-well plates (MultiScreen MAIP N45; Millipore) were coated overnight with the relevant antibodies. The wells were washed, blocked by X-vivo medium and the effector cells were added if possible in triplicates otherwise in duplicates at different cell concentrations, with or without peptide. The plates were incubated overnight. The following day, medium was discarded and the wells were washed prior to addition of the relevant biotinylated secondary Ab (Mabtech), followed by the Avidin-enzyme conjugate (AP-Avidin; Calbiochem/Invitrogen Life Technologies) and finally the enzyme substrate NBT/BCIP (Invitrogen Life Technologies). The spots were counted using the ImmunoSpot Series 2.0 Analyzer (CTL Analyzers). […]

[6] = tested on: PD-L101-specific T-cell bulk culture; assay: CD107a staining of T-cell bulk culture after peptide addition; assay type: cell-based, human; details: peptide added directly to T-cell bulk culture, FACS
From the text: Subsequently, cells were stained with tetramer and surface markers and analysed FACSCANTO II (BD Biosciences, San Jose Calif., USA).

[7] = tested on: autologous matured DC (mDC); assay: 51Cr-release cytotoxicity assay, autologous matured DC; assay type: cell-based, human; details: mDC transfected by electroporation
Method: DC were generated from PBMC by adherence on culture dishes at 37° C. for 1-2 hr. in RPMI-1640. Adherent monocytes were cultured in RPMI-1640 supplemented with 10% fetal calf serum in the presence of IL-4 (250 U/ml) and GM-CSF (1000 U/ml) for 6 days. DC were matured by addition of […] (1000 U/ml), IL-6 (1000 U/ml) TNF-α (1000 U/ml) and PGE2 (1 ug/ml).
as §1
(§3) Stealth siRNA duplex for targeted silencing of PD-L1 and recommended Stealth siRNA negative control duplex for medium GC content were obtained from Invitrogen (Invitrogen, Paisley, UK). The Stealth PD-L1 siRNA duplex consisted of the sense sequence 5′-[…]3′ (SEQ ID NO: 21) and the anti-sense sequence 5′-[…]-3′ (SEQ ID NO:22). For PD-L1 silencing experiments, mDC were transfected with PD-L1 siRNA using electroporation parameters.

[8] = tested on: PD-L1 surface expression on mDC; assay: Flow cytometry of PD-L1 surface expression on mDC; assay type: cell-based, human; details: 24 hr after transfection; 0.05, 0.10 and 0.25 nmol
Method: as §3
(§4) Flow cytometry analysis was performed on a FACSCANTO II (BD Biosciences, San Jose Calif., USA) to determine PD-L1 surface expression on mDC before and after siRNA targeted silencing, T2-cells, KIG-BCL and HLA-A2^+ melanoma cell lines (MM1312.07 and MM.909.06) with or without IFN-γ treatment. Cells were washed in PBS/1% BSA and subsequently stained either with FITC- or PE-Cy5-conjugated anti-PD-L1 monoclonal antibody for 30 min on ice in PBS/1% BSA. Nonreactive isotype-matched antibody (BD Biosciences) was used as control. Fluorescence analyses were performed using FACSDiva software (BD Biosciences) and FlowJo software (Tree Star, Ashland Oreg., USA).

[9] = tested on: PD-L1 surface expression on MM.909.06; assay: Flow cytometry of PD-L1 surface expression on MM.909.06; assay type: cell-based; details: FACS
Method: as §4

[10] = tested on: PD-L1 surface expression on MM1312.07; assay: Flow cytometry of PD-L1 surface expression on MM1312.07; assay type: cell-based; details: FACS
Method: as §4

[11] = tested on: HLA-A2+ melanoma cell line MM1312.07; assay: 51Cr-release cytotoxicity assay, MM1312.07; assay type: cell-based; details: IFN-γ (100 U/ml) for 2 days
Method: as §1

[12] = tested on: HLA-A2+ melanoma cell line MM.909.06; assay: 51Cr-release cytotoxicity assay, MM.909.06; assay type: cell-based; details: IFN-γ (100 U/ml) for 2 days
Method: as §1

VILGAILLCLGVALTFIFRLRKG (PD-L1 peptide) [PDLong2]
lysis of pulsed KIG-BCL by PD-L101-specific CTL [1]: not killed

PD-L1 protein: PD-L1 recombinant protein (Sin θ Biological Inc.), full length, used to pulse T2-cells and KIG-BCL
lysis of pulsed KIG-BCL by PD-L101-specific CTL [1]: not recognized
lysis of peptide- or protein-pulsed T2-cells by PD-L101-specific T-cell culture (T2-cells): recognized and killed

CLGVALTFI (PD-L1 peptide) [PDL111]
specific T-cell responses, IFN-γ ELISPOT (PBMC [2]): responses were detected

LLNAFTVTV (PD-L1 peptide) [PD-L101]
lysis of pulsed KIG-BCL by PD-L101-specific CTL [1]: recognized
binding to HLA-A2 (HLA-A2): comparable to the high-affinity control epitope
lysis of peptide- or protein-pulsed T2-cells by PD-L101-specific T-cell culture (T2-cells): killed; also recorded: lysed T2-cells pulsed with PD-L101 efficiently
lysis of peptide- or protein-pulsed T2-cells by PD-L101-specific T-cell culture (T2-cells; listed as PDL01): efficiently presented
GrB ELISPOT responses (DFR test) (PBMC [3]): could be detected in the three patients; also recorded: significant responses against PD-L101 in two of the patients
frequency of PD-L101-specific, GrB releasing cells (PBMC [3]): 100-300 PD-L101-specific, GrB releasing cells per 5×10^5 PBMC
PD-L1-reactive T cells by HLA-A2/PD-L101 tetramer, directly ex vivo ([4]; PBMC from two PD-L101-responding patients (CM.21, MM.05)): detectable ex vivo in both patients
PD-L1-tetramer positive cells ([4]; T-cells from a breast cancer patient): 13.52%
PD-L1-tetramer positive cells ([4]; T-cells from a malignant melanoma patient): 0.17%
frequency of PD-L1-specific T-cells by tetramer after one in vitro peptide stimulation ([4]; both patients (CM.21, MM.05)): markedly increased the frequency
TNF-α release by PD-L101-specific cells, TNF-α ELISPOT (PBMC [5]): released TNF-α
specific T-cell responses, IFN-γ ELISPOT (PBMC [2]): Frequent and strong responses were detected
specific T-cell responses, IFN-γ ELISPOT (PBMC [2]; listed as PDL101): responses were detected
PD-L101-specific cells, IFN-γ ELISPOT directly ex vivo (PBMC [2]; PBMC of responding patients, without peptide stimulation in vitro): significant responses; also recorded: readily detectable ex vivo in selected patients
HLA-A2/PD-L101-tetramer+, CD107a+ cells [6]: distinct populations

ILKEPVHGV [HIV-1 pol476-484, reference compound]
lysis of pulsed KIG-BCL by PD-L101-specific CTL [1]: not killed
lysis of peptide- or protein-pulsed T2-cells by PD-L101-specific T-cell culture (T2-cells): no cytotoxic was observed

5′-CCUACUGGCAUUUGCUGAACGCAUU3′ (antisense AAUGCGUUCAGCAAAUGCCAGUAGG; listed as RNA, chemistry not given here) [PD-L1 siRNA]
killing of siRNA-transfected mDC by PD-L1-specific CTL cultures [7]: rescued the DC from being killed
PD-L1 protein surface expression on mDC after siRNA transfection [8]: reduced the level of PD-L1 protein expression

VILGAILLCL (PD-L1 peptide) [PDL114]
specific T-cell responses, IFN-γ ELISPOT (PBMC [2]): responses were detected

FMTYWHLLNAFTVTVPKDL (PD-L1 peptide) [PDLong1]
lysis of pulsed KIG-BCL by PD-L101-specific CTL [1]: recognized
lysis of peptide- or protein-pulsed T2-cells by PD-L101-specific T-cell culture (T2-cells): take up, process and present

B1: IFN-γ: cytokine added (100 U/ml, 2 days) to melanoma cell lines (protein, UniProt P01579 24-161, looked up)
Interferon gamma: QDPYVKEAENLKKYFNAGHSDVADNGTLFLGILKNWKEESDRKIMQSQIVSFYFKLFKNFKDDQSIQKSVETIKEDMNVKFFNSNKKKRDDFEKLTNYSVTDLNVQRKAIHELIQVMAELSPAAKTGKRKRSQMLFRG
effect of IFN-γ treatment on PD-L1 expression, MM.909.06 [9]: increased the expression of PD-L1 in both cell lines
effect of IFN-γ treatment on PD-L1 expression, MM1312.07 [10]: increased the expression of PD-L1 in both cell lines
effect of IFN-γ treatment on killing of MM1312.07 [11]: increased the killing of both melanoma cell lines
effect of IFN-γ treatment on killing of MM.909.06 [12]: increased the killing of both melanoma cell lines
